Measured values from patent US20050208528A1, “Enhancement of the stability of oligonucleotides comprising phosphorothioate linkages by addition of water-soluble antioxidants” (ISIS Pharmaceuticals, Inc., priority 2001, published 2005).
Structures can show the parent of a compound that is named as a salt. Where two headings read alike, the source gives them in different places. Blank lines part the entries; values can stand above or below the compound they belong to. In the oligonucleotide strings, read from the 5' end, every base follows the letter of its sugar. An asterisk marks phosphorothioate; unmarked linkages are phosphodiester. Other units and linkages are bracketed, terminal groups are in braces. A string of capitals states the bases alone. d = 2'-deoxy (DNA)

Tests used:
ISIS 2302 [1] = assay: Long-term protection of creams by antioxidants, 40° C. for 1 month; format: physicochemical; parameters: full PS-content: unit: %; conditions: for full PS-content: cream, 0.03% ISIS 2302, 40° C. 1 month, LC/MS or SAX, no antioxidants 45.1, no excipients 91.3; for Protection against desulfurization (in words): bi-phasic cream formulation
Description: (§1) A cream formulation was prepared containing 5.0 g BRIJ 58 (polyoxyethylene[20]cetyl ether), 0.03% ISIS 2302 and different concentrations of phenolic antioxidants.

ISIS 2302 [2] = assay: Desulfurization in bi-phasic cream formulation with water-soluble and oil-soluble antioxidants, 40° C. for 6 days; format: physicochemical; conditions: for Full PS content (%): cream, 0.03% ISIS 2302, 40° C. 6 days, no additive 84.7
Description: The cream was heated at 40° C. for 6 days and the oligonucleotide was isolated by ethanol precipitation and analyzed for full PS content by SAX chromatography.

[3] = tested on: phosphorothioate oligonucleotide (ISIS-2302); assay: Desulfurization of phosphorothioate oligonucleotide in mono-phasic system with oil-soluble antioxidants (SAX chromatography); format: physicochemical; conditions: for Full PS content (area-% SAX): 0.5 g PEG-40-monostearate, 1.5 ml phosphate buffer pH 7.0, 1.5 mg ISIS-2302, 65° C. 20 hours, no antioxidants 51.0
Description: Polyethyleneglycol-40-monostearate (0.5 g), a water-soluble excipient which forms peroxides in the absence of antioxidants, was heated at 65° C. for 20 hours with 1.5 ml phosphate buffer, pH 7.0 and 1.5 mg phosphorothioate oligonucleotide (ISIS-2302) in the absence or presence of various oil-soluble antioxidants. Oligonucleotides were isolated by ethanol precipitation and phosphorothioate content was determined by strong anion exchange (SAX) chromatography.

ISIS 2302 [4] = assay: Desulfurization in bi-phasic cream formulation with oil-soluble antioxidants, 40° C. for 2 days; format: physicochemical; conditions: for Full PS content (%): 0.03% ISIS 2302, 0 mg gives 83.9; for Full PS content (%) / Protection of phosphorothioate oligonucleotides against desulfurization (in words): 40° C. 2 days; for Protection of phosphorothioate oligonucleotides against desulfurization (in words): biphasic cream
Description: as §1

ICAM-1 [5] = conditions: C8161 human melanoma cells; cited from earlier work
[6] = Crohn's disease, rheumatoid arthritis, psoriasis, ulcerative colitis, kidney transplant rejection models; cited from earlier work
[7] = cited from earlier work
C8161 cells = conditions: experimental metastasis assay, cited from earlier work
HLA-A and HLA-B = conditions: versus HLA-A and HLA-B; cited from earlier work
ICAM-1 [8] = conditions: cited from earlier work
[9] = 5 mg antioxidant in 100 g cream
[10] = 10 mg antioxidant in 100 g cream
[11] = 25 mg antioxidant in 100 g cream
[12] = 50 mg antioxidant in 100 g cream
[13] = 75 mg antioxidant in 100 g cream
[14] = 100 mg antioxidant in 100 g cream
[15] = cream with 0.03% ISIS 2302, before heating

Compound: O=S(=O)([O-])c1ccc2[nH]c(S)nc2c1.[Na+] [2-MBSA]
full PS-content (ISIS 2302 [1]; additive 0.01%): 78.7 | full PS-content (ISIS 2302 [1]; additive 0.05%): 95.2 | full PS-content (ISIS 2302 [1]; additive 0.2%): 96.1 | full PS-content (ISIS 2302 [1]; additive 0.8%): 95.7 | Protection against desulfurization (in words) (ISIS 2302 [1]): inhibited desulfurization | Full PS content (%) (ISIS 2302 [2]; additive 4.8 mg): 95.5%

Compound: O=S(=O)(O)CCS [2-MESA, Na salt, 2-mercaptoethanesulfonic acid]
full PS-content (ISIS 2302 [1]; additive 0.01%): 61.2 | full PS-content (ISIS 2302 [1]; additive 0.05%): 71.6 | full PS-content (ISIS 2302 [1]; additive 0.2%): 72.5 | full PS-content (ISIS 2302 [1]; additive 0.8%): 86.7

Compound: Cc1cccc(C(C)(C)C)c1O [2-t-butyl-6-methylphenol]
Full PS content (area-% SAX) ([3]; 5 mg additive): 93.4 area-% SAX | Full PS content (%) (ISIS 2302 [2]; additive 11.0 mg): 79.0%

Compound: O=C(O)CCCCC1CCSS1 (stereo not drawn) [α-lipoic acid]
full PS-content (ISIS 2302 [1]; additive 0.02%): 80.2 | full PS-content (ISIS 2302 [1]; additive 0.1%): 84.3 | full PS-content (ISIS 2302 [1]; additive 0.45%): 84.7 | full PS-content (ISIS 2302 [1]; additive 1.6%): 87.6 | Protection against desulfurization (in words) (ISIS 2302 [1]): inhibited desulfurization

Compound: ISIS 1939: 2′-deoxyoligonucleotide, phosphorothioate backbone, 5′-CCC-CCA-CCA-CTT-CCC-CTC-TC-3′ (SEQ ID NO:2), targeted to 3′-UTR of human ICAM-1 gene (antisense dC*dC*dC*dC*dC*dA*dC*dC*dA*dC*dT*dT*dC*dC*dC*dC*dT*dC*dT*dC)
ICAM-1 expression (mRNA levels, northern blot) (ICAM-1 [5]): markedly reduced ICAM-1 expression

Compound: ISIS 2302: 2′-deoxyoligonucleotide, phosphorothioate backbone, 5′-GCC-CAA-GCT-GGC-ATC-CGT-CA-3′ (SEQ ID NO:1), targeted to 3′-UTR of human ICAM-1 gene (antisense GCCCAAGCTGGCATCCGTCA; DNA, all phosphorothioate, methylation of C not given here)
phosphorothioate content of the cream prior to heating (ISIS 2302 [4]; [15]): 95% | ICAM-1 expression (mRNA levels, northern blot) (ICAM-1 [5]): markedly reduced ICAM-1 expression | Anti-inflammatory effects in animal testing [6]: strong anti-inflammatory effects | PS content of the cream prior to heating (ISIS 2302 [2]; [15]): about 95% | Activity against Crohn's disease ([7]; humans): activity against Crohn's disease | Safety in humans ([7]; in vivo): good safety | Steroid-sparing effect ([7]; treated human subjects, five months post-treatment weaned from steroids and in remission): statistically significant steroid-sparing effect | Enhanced metastatic ability of C8161 cells resulting from TNF-α treatment (C8161 cells; TNF-α treated cells): eliminated the enhanced metastatic ability | Metastatic potential of C8161 cells (C8161 cells): decreased the metastatic potential | Specificity for target ICAM-1 over other potential nucleic acid targets (HLA-A and HLA-B): demonstrated specificity for its target ICAM-1 | ICAM-1 expression (ICAM-1 [8]; human epidermal carcinoma cells (A431)): inhibit ICAM-1 expression | ICAM-1 expression (ICAM-1 [8]; human keratinocytes): inhibit ICAM-1 expression | ICAM-1 expression (ICAM-1 [8]; human lung carcinoma cells (A549)): inhibit ICAM-1 expression | ICAM-1 expression (ICAM-1 [8]; human umbilical vein cells): inhibit ICAM-1 expression

Compound: Vitamin E
Full PS content (%) (ISIS 2302 [4]; [9]): 84.0% | Full PS content (%) (ISIS 2302 [4]; [10]): 81.9% | Full PS content (%) (ISIS 2302 [4]; [11]): 80.6% | Full PS content (%) (ISIS 2302 [4]; [12]): 78.6% | Full PS content (%) (ISIS 2302 [4]; [13]): 78.7% | Full PS content (%) (ISIS 2302 [4]; [14]): 76.3% | Protection of phosphorothioate oligonucleotides against desulfurization (in words) (ISIS 2302 [4]): do not provide protection | Full PS content (area-% SAX) ([3]; 15 mg additive): 89.7 area-% SAX | Protection of phosphorothioate oligonucleotide against desulfurization (in words) ([3]; mono-phasic system): inhibit desulfurization | Full PS content (%) (ISIS 2302 [2]; additive 7.4 mg): 83.7% | Protection from desulfurization (in words) (ISIS 2302 [2]; bi-phasic cream formulation): ineffective

Second part, the compound after the results:

Full PS content (%) (ISIS 2302 [4]; [9]): 85.8% | Full PS content (%) (ISIS 2302 [4]; [10]): 82.1% | Full PS content (%) (ISIS 2302 [4]; [11]): 80.1% | Full PS content (%) (ISIS 2302 [4]; [12]): 85.4% | Full PS content (%) (ISIS 2302 [4]; [13]): 84.4% | Full PS content (%) (ISIS 2302 [4]; [14]): 85.2% | Protection of phosphorothioate oligonucleotides against desulfurization (in words) (ISIS 2302 [4]): do not provide protection | Full PS content (%) (ISIS 2302 [2]; additive 5.2 mg): 77.3%
Compound: Cc1cc(C(C)(C)C)c(O)c(C(C)(C)C)c1 [BHT, butylated hydroxytoluene]

full PS-content (ISIS 2302 [1]; additive 0.01%): 9.6 | full PS-content (ISIS 2302 [1]; additive 0.05%): 49.4 | full PS-content (ISIS 2302 [1]; additive 0.2%): 50.9 | full PS-content (ISIS 2302 [1]; additive 0.8%): 80.1 | Protection against desulfurization (in words) (ISIS 2302 [1]): inhibited desulfurization
Compound: N[C@@H](CCC(=O)N[C@@H](CS)C(=O)NCC(=O)O)C(=O)O [Glutathione]

full PS-content (ISIS 2302 [1]; additive 0.01%): 28.4 | full PS-content (ISIS 2302 [1]; additive 0.05%): 30.8 | full PS-content (ISIS 2302 [1]; additive 0.2%): 67.3 | full PS-content (ISIS 2302 [1]; additive 0.8%): 81.9 | Protection against desulfurization (in words) (ISIS 2302 [1]): inhibited desulfurization | Full PS content (%) (ISIS 2302 [2]; additive 0.05 mg): 89.6% | Full PS content (%) (ISIS 2302 [2]; additive 0.2 mg): 91.8% | Full PS content (%) (ISIS 2302 [2]; additive 0.4 mg): 93.6% | Full PS content (%) (ISIS 2302 [2]; additive 1.0 mg): 93.7% | Full PS content (%) (ISIS 2302 [2]; additive 6.1 mg): 93.0% | Full PS content (%) (ISIS 2302 [2]; additive 52.2 mg): 94.5%
Compound: N[C@@H](CS)C(=O)O [L-cysteine]

Full PS content (%) (ISIS 2302 [2]; additive 7.5 mg): 84.8%
Compound: Vitamin E-TPGS
